Structures are written as SMILES.

For `COc1ccc(C2CC(c3ccc(Cl)cc3Cl)=NN2c2nc(-c3ccc(Cl)cc3)cs2)cc1OC` (stereo not shown) [1b, 4-(4-chlorophenyl)-2-(3-(2,4-dichlorophenyl)-5-(3,4-dimethoxyphenyl)-4,5-dihydro-1H-pyrazol-1-yl)thiazole], the melting point (usually the temperature of the solid-liquid transition) was 158 to 159 °C.
In the case of `COc1ccc(C2CC(c3ccc(Cl)cc3Cl)=NN2c2nc(-c3ccccc3)cs2)cc1` (stereo not shown) [1c, 2-(3-(2,4-dichlorophenyl)-5-(4-methoxyphenyl)-4,5-dihydro-1H-pyrazol-1-yl)-4-phenylthiazole], the melting point lay in the range of 72 to 75 °C.
Molecule `COc1ccc(C2CC(c3ccc(Cl)cc3Cl)=NN2c2nc(-c3ccc(Cl)cc3)cs2)cc1` (stereo not shown) [1d, 4-(4-chlorophenyl)-2-(3-(2,4-dichlorophenyl)-5-(4-methoxyphenyl)-4,5-dihydro-1H-pyrazol-1-yl)thiazole] registered a melting point of 140 to 141 °C.
`COc1ccc(C2CC(c3ccc(Cl)cc3Cl)=NN2c2nc(-c3ccccc3)cs2)cc1OC` (stereo not shown) [1a, 2-(3-(2,4-dichlorophenyl)-5-(3,4-dimethoxyphenyl)-4,5-dihydro-1H-pyrazol-1-yl)-4-phenylthiazole] displayed a melting point of 120 to 122 °C.

These data come from US11805773B1, “Nanocomposite including water-soluble nano-polymer and mesoporous silica nanoparticles encapsulated with azole derivatives” (KING FAISAL UNIVERSITY, priority 2023, dated 2023).
